Like-named read-outs stand apart in the source and are kept apart here. Marks after values point to notes of the source that are not given here.
Key:
[1] = system: human glioblastoma model U87 MG; test: Combination with vincristine in human glioblastoma model U87 MG (intracerebral); type: in vivo, nude mice
Procedure: The study was designed to determine the response of this glioblastoma model to the treatment with the investigational Compound A1 and vincristine, both alone at a fixed dose, and vincristine in combination with two different doses, both lower than that of Compound A1 used in the monotherapy schedule. The size of the glioblastoma was used as read out parameter for response.
The cell culture derived human xenograft U87 MG was initiated by transplantation of the tumor cells into the left hemisphere of the mouse brain. Treatment was done in three cycles between day 3 and day 19. Mice were sacrificed at day 24, the brain isolated and shock frozen in 2 methyl-butane. Tumor size were determined as measure for tumor growth inhibition from cryo-slizes after staining.

[2] = system: NCI-H1299 human NSCLC xenograft tumors; conditions: Compound A1 0.45 mg/kg 2QD 2on/5off p.o., paclitaxel 20 mg/kg QD 1on/6off i.v.; for T/C area: relative mean tumor area, 28 treatment days
Procedure: The effect of combination treatment of an Mps-1 inhibitor and paclitaxel was studied in the NCI-H1299 taxane intrinsically resistant human lung carcinoma (NSCLC) xenograft model in nude mice.
(§1) Paclitaxel was applied intravenously once per week upon its respective MTD. Substances were formulated in optimal vehicles to achieve solutions. Animal body weight and tumor size were determined two to three times weekly. […] For combination treatment, the Compound A1 and paclitaxel were applied at the same day within a time frame of 4 hours. Animals of control and monotherapy group (Compound A1 only) were treated for a duration of 28 days. Animals of paclitaxel monotherapy and paclitaxel/Mps-1 inhibitor treatment groups were treated for a duration of 37 days. At the end of the study after one final treatment plasma and tumors were sampled for PK analysis and final tumor weight was determined.
(§2) FIGS. 1A and 1B show the response of NCI-H1299 human NSCLC xenograft tumors to treatment with Compound A1 in combination with paclitaxel. NCI-H1299 human NSCLC tumor cells were implanted s.c. into nude mice on day 0. […] Compound A1 was administered orally (p.o.) upon 0.45 mg/kg twice daily (2QD) for 2 days on/5 days off (2 on/5 off) in monotherapy and in combination with paclitaxel. Paclitaxel was administered intravenously (i.v.) upon 20 mg/kg once daily (QD) once per week (1 on/6 off) in monotherapy and combination therapy. Tumor growth was monitored by determination of the tumor area using calliper measurement two to three times weekly. FIG. 1A: Time course of tumor growth. FIG. 1B: Time course of animal body weight change during the course of the study.

[3] = system: MDA-MB 231 human triple-negative breast cancer xenograft tumors; conditions: Compound A1 1 mg/kg 2QD 2on/5off p.o., paclitaxel 20 mg/kg QD 1on/6off i.v.; for T/C area: relative mean tumor area, 28 treatment days
Procedure: The effect of combination treatment of an Mps-1 kinase inhibitor (Compound A1) and paclitaxel was studied in the MDA-MB 231 human triple-negative (no expression of Her2/neu, progesterone receptor, estrogen receptor) xenograft model in nude mice.
as §1, with “determined” for “determined two to”, “treatment,” for “treatment, the”, “paclitaxel/Mps-1 kinase” for “paclitaxel/Mps-1”, “50” for “37”
as §2, with “MDA-MB 231” for “FIGS. 1A and 1B show the response of NCI-H1299”, “breast cancer” for “NSCLC xenograft tumors to treatment with Compound A1 in combination with paclitaxel. NCI-H1299 human NSCLC tumor”, “1” for “0.45”, “measurement” for “measurement two to”, “3A:” for “1A:”, “3B: Weight of tumors in paclitaxel/Mps-1 kinase inhibitor combination group at the end of the study at day 73 after tumor cell inoculation. FIG. 3C:” for “1B:”

[4] = system: primary human NSCLC xenograft model LU387; test: Combination with paclitaxel in primary human NSCLC xenograft model LU387; type: in vivo, nude mice; conditions: day 42; paclitaxel 20 mg/kg IV QW for 6 weeks, alone or in combination with Compound A1
Procedure: The effect of Compound A1 and paclitaxel compared with a vehicle was evaluated in the subcutaneous primary human NSCLC xenograft model LU387 on nude mice.

[5] = system: IGR-OV1 human ovarian carcinoma model
Procedure: Paclitaxel was administered IV QW at 50% of its respective MTD.

A2780cis xenograft model = system: A2780cis xenograft model
Procedure: The effect of the combination treatment of Compound A1 with paclitaxel was studied in a human ovarian carcinoma model in nude mice, namely in the adaptive cisplatin-resistant and paclitaxel intrinsically-resistant A2780cis xenograft model. […] Paclitaxel was administered IV QW at its respective MTD.

[6] = Maximum tolerated dose (MTD); type: in vivo, nude mice
[7] = system: MKN1 human gastric carcinoma model; conditions: mouse, in vivo
Procedure: (§3) Compound A1 was administered PO in the 2QD intermittent (2 days on/5 days off) dosing schedule up to the respective MTD in single-agent treatment and at a dose of 40% of the single-agent MTD in combination. Paclitaxel was administered IV QW at its respective MTD. Treatment for all groups started at a tumor size of 27 mm^2, on day 7 after tumor cell inoculation. For combination treatment, Compound A1 and paclitaxel were administered on the same day within a time of 4 hours. Animals of the control and Compound A1 single-agent treatment groups were treated for 40 days. Animals of the paclitaxel single-agent and Compound A1 with paclitaxel combination treatment groups were treated for 78 days.

[8] = system: cisplatin-resistant ovarian cancer cells A2780cis; test: Mode of action: histopathology of A2780cis tumors after treatment
Procedure: To explain in vivo the mode of action of an Mps-1 kinase inhibitor in single-agent treatment and combination treatment with a taxane, female NMRI (Naval Medical Research Institute) nude mice were implanted with cisplatin-resistant ovarian cancer cells A2780cis.
Paclitaxel was administered IV (intravenous(ly)) QW (once per week (meaning the 1 day on/6 days off treatment schedule)) at its MTD (24 mg/kg) in single-agent and combination treatments. […] Tumors were embedded in paraffin, sections were prepared and stained with hematoxylin & eosin for histopathological analysis.

[9] = system: MKN1 human gastric carcinoma model; test: Combination with paclitaxel in MKN1 human gastric carcinoma model
Procedure: as §3

[10] = system: NCI-H1299 human NSCLC xenograft tumors; conditions: Compound A1 2 mg/kg 2QD 2on/5off p.o., docetaxel 15 mg/kg QD 1on/6off i.v.; for T/C area: relative mean tumor area, 20 treatment days
Text: The effect of combination treatment of an Mps-1 kinase inhibitor (Compound A1) with docetaxel, another SAC activating, […], anti-mitotic agent, used as standard of care in NSCLC patients, was studied in the NCI-H1299 taxane intrinsically resistant human lung carcinoma (NSCLC) xenograft model in nude mice.
Docetaxel was applied intravenously once per week upon its respective MTD. Substances were formulated in optimal vehicles to achieve solutions. Animal body weight and tumor size were determined two times weekly. […] For combination treatment Compound A1and docetaxel were applied at the same day within a time frame of 4 hours. Animals of control and Mps-1 kinase inhibitor monotherapy group were treated for a duration of 20 days. Animals of docetaxel monotherapy and docetaxel/Mps-1 kinase inhibitor combination treatment groups were treated for a duration of 42 days. At the end of the study after one final treatment plasma and tumors were sampled for PK analysis and final tumor weight was determined.
as §2, with “NCI-H1299” for “FIGS. 1A and 1B show the response of NCI-H1299 human NSCLC xenograft tumors to treatment with Compound A1 in combination with paclitaxel. NCI-H1299”, “2.0” for “0.45”, “docetaxel. Docetaxel” for “paclitaxel. Paclitaxel”, “15” for “20”, “2A:” for “1A:”, “2B: Weight of tumors in docetaxel/Mps-1 kinase inhibitor combination group at the end of the study at day 52 after tumor cell inoculation. FIG. 2C:” for “1B:”

[11] = day 24, single agents: Gr. B Compound A1 2.5 mg/kg p.o., Gr. C Vincristine 0.75 mg/kg i.p.
[12] = after 78 treatment days, paclitaxel 24 mg/kg IV QW

CC[C@]1(O)C[C@H]2CN(CCc3c([nH]c4ccccc34)[C@@](C(=O)OC)(c3cc4c(cc3OC)N(C=O)[C@H]3[C@@](O)(C(=O)OC)[C@H](OC(C)=O)[C@]5(CC)C=CCN6CC[C@]43[C@@H]65)C2)C1 [Vincristine, vincristine, reference compound]
inhibition of tumor growth ([1]; Gr. C vincristine alone, Gr. D combination of high dose Compound A1 and vincristine): 38.6% | Brain tumor inside [mm^2] ([1]; day 24, single agents: Gr. B Compound A1 2.5 mg/kg p.o. BIDx2x3, Gr. C Vincristine 0.75 mg/kg i.p. 1xqWx3): 10.69 +/− 6.71 mm^2 | Brain tumor outside [mm^2] [1, 11]: 4.50 +/− 1.66 mm^2 | Brain tumor total [mm^2] [1, 11]: 13.26 +/− 7.25 mm^2 | T/C (inside T) [%] [1, 11]: 61.4%

CC(=O)O[C@H]1C(=O)[C@@]2(C)[C@H]([C@H](OC(=O)c3ccccc3)[C@]3(O)C[C@H](OC(=O)[C@H](O)[C@@H](NC(=O)c4ccccc4)c4ccccc4)C(C)=C1C3(C)C)[C@]1(OC(C)=O)CO[C@@H]1C[C@@H]2O [Paclitaxel, (2α,4α,5β,7β,10β,13α)-4,10-bis(acetyloxy)-13-{[(2R, 3S)-3-(benzoylamino)-2-hydroxy-3-phenylpropanoyl]oxy}-1,7-dihydroxy-9-oxo-5,20-epoxytax-11-en-2-yl benzoate, reference compound]
Fatal Tox [2]: 0/10 | T/C area [2]: 0.28^# | T/C area ([2]; listed as paclitaxel): 0.28 | Fatal Tox [3]: 0/10 | T/C area [3]: 0.14^# | T/C area ([3]; listed as paclitaxel): 0.14 | mean tumor size [4]: 1494 mm^3 | relative T/Carea ([5]; 38 treatment days, Compound A1 single agent 2.5 mg/kg PO 2QD, paclitaxel 12 mg/kg IV QW, combination with Compound A1 2 mg/kg PO 2QD): 0.34 | anti-tumor efficacy (in words) ([5]; Compound A1 2.5 mg/kg single agent (38 days), paclitaxel 12 mg/kg and combination with Compound A1 2 mg/kg (treatment day 38 to 59)): clear tumor progression | tolerability (in words) ([5]; mouse, in vivo): well tolerated without critical body weight loss or toxicities | relative T/Carea (A2780cis xenograft model; 14 treatment days, Compound A1 1 mg/kg PO 2QD 2 days on/5 days off, paclitaxel 24 mg/kg IV QW): 0.09 | tolerability (in words) (A2780cis xenograft model; mouse, in vivo): well tolerated without critical body weight loss or toxicities | MTD (maximum tolerated dose), single-agent ([6]; paclitaxel i.v. 1 day on/6 days off, as stated for the NCI-H1299 study): 20 mg/kg | tolerability (in words) [7]: overall well tolerated without critical body weight loss | histopathological phenotype of tumor tissue ([8]; paclitaxel 24 mg/kg IV QW single agent, 4 and 8 hours after treatment): induced atypical mitoses | histopathological phenotype of tumor tissue ([8]; paclitaxel 24 mg/kg IV QW single agent, 28, 32 and 48 hours after treatment): increased necrosis and apoptosis | relative T/Carea ([9]; 40 treatment days, paclitaxel 24 mg/kg IV QW, combination with Compound A1 1 mg/kg PO 2QD 2 days on/5 days off): 0.05 | partial regression (% of tumors) [9, 12]: 20% | tumor growth delay (% of tumors) [9, 12]: 80% | anti-tumor efficacy (in words) ([9]; mouse, in vivo): overall disease stabilization | Fatal toxicity (number of animals) ([9]; paclitaxel group: Treatment Day 57, combination group: after the first treatment cycle): 1

CC(=O)O[C@@]12CO[C@@H]1C[C@H](O)[C@@]1(C)C(=O)[C@H](O)C3=C(C)[C@@H](OC(=O)[C@H](O)[C@@H](NC(=O)OC(C)(C)C)c4ccccc4)C[C@@](O)([C@@H](OC(=O)c4ccccc4)[C@H]21)C3(C)C [Docetaxel, 1,7β,10β-trihydroxy-9-oxo-5β,20-epoxytax-11-ene-2α,4,13α-triyl 4-acetate 2-benzoate 13-{(2R,3S)-3-[(tert-butoxycarbonyl)amino]-2-hydroxy-3-phenylpropanoate}, reference compound]
Fatal Tox [10]: 0/8 | Max. Body weight loss (%) [10]: −2% | T/C area [10]: 0.16^# | T/C area ([10]; listed as docetaxel): 0.16 | MTD ([6]; nude, mouse, in vivo, Compound A1 PO 2QD 2 days on/5 days off, paclitaxel IV QW, docetaxel i.v. 1 day on/6 days off, read-out: MTD (maximum tolerated dose), single-agent): 15 mg/kg

From US20160128988A1, “COMBINATIONS FOR THE TREATMENT OF CANCER COMPRISING A MPS-1 KINASE INHIBITOR AND A MITOTIC INHIBITOR” (BAYER PHARMA AKTIENGESELLSCHAFT, priority 2013, published 2016)
